Data published in US20180296537A1, “METHODS AND COMPOSITIONS FOR DIAGNOSING, TREATING, AND MONITORING TREATMENT OF SHANK3 DEFICIENCY ASSOCIATED DISORDERS” (Novartis AG, priority 2015, published 2018).

Test system: PMDS iPS-derived neurons
Experiment: sEPSC recordings from iPS-derived PMDS neurons
Type: cell-based, human
Description: Primary human dermal fibroblasts from neonatal (Invitrogen, Carlsbad, Calif.) and adults (University of Milano, Dr. Sala) were taken for reprogramming using the CytoTune-iPS reprogramming kit (Life Technologies, Carlsbad, Calif.) according to the standard protocol. Colonies with hallmark of pluripotent morphology were readily visible between days 17 and 20 after transduction. These were picked and subcloned multiple times on plates coated with Matrigel (BD Biosciences, San Jose, Calif.) in mTeSR medium until Sendai virus RNA could no longer be detected and the morphology looked stable. […] Karyotype analyses was performed by full-genome SNP analyses by Life&Brain Gmbh (Bonn). […] Neuronal precursors were differentiated from iPS cells by using a modified dual SMAD inhibition as described earlier (Chambers et al., 2009; Pecho-Vrieseling et al., 2014). Briefly, […] undifferentiated hiPSC were seeded in an ULA 96-well in 0.1 ml neural induction medium (20% knockout-serum replacement (Invitrogen), 0.1 mM MEM non-essential amino acids (Invitrogen), 0.1 mM 2-mercaptoethanol (Invitrogen), 75% […] (Invitrogen Gibco); Pen/Strep, 10 ng ml bhFGF (1:1,000, Invitrogen), 10 μM SB 431542 (1:1,000) (Tocris, Bristol, UK) and 1 μM LDN 193189 (1:10,000) (Stemgent) with 10 μM Rock inhibitor to prevent apoptosis (Calbiochem, Darmstadt, Germany). Two days later 0.1 ml of fresh induction media was added to the old one. The next day 30 embryoid bodies (EB) were transferred to a 35 mm matrigel dish with induction media. At day 10 EB's were cleaned to have only neuronal rosettes left. […]
Whole cell patch-clamp recordings were excluded if the access resistance exceeded 13 MΩ and changed more than 20% during the recordings. Data were recorded with a MultiClamp 700B (Molecular Devices) amplifier, filtered at 0.2 kHz, and digitised at 10 kHz. Data were acquired and analysed with Clampex 10.0, Clampfit 10.0 (Molecular Devices) and the Mini Analysis Program (Synaptosoft, Decatur, Ga.). […]

[1] = PMDS neurons, eight weeks in vitro, overnight treatment

Row | Structure (SMILES) | frequency of spontaneous EPSCs (sEPSCs) [1] | frequency of spontaneous EPSCs (sEPSCs) (neurons from second PMDS patient (PMDS-2))
1 | CCOC(=O)C1=C(N)Oc2ccc(Cl)cc2C1C(C#N)C(=O)OCC (stereo not drawn) [SC79] | completely rescued this impairment | restorative effect of SC79 was also observed
2 | CCN1/C(=C/C(C)=O)Sc2ccc(OC)cc21 [TG003, (Z)-1-(3-ethyl-5-methoxy-2,3-dihydrobenzothiazol-2-ylidene)propan-2-one] | completely rescued this impairment | 
